For data set [1], the target named is ERα ligand binding domain (Homo sapiens, UniProt P03372). Nature of the data set: Competitive [3H]-estradiol binding assay, ER-α (Example 21). The protocol:
ER binding affinity was determined via one of the following methods:
Briefly, the incubation mixture was filtered through a high affinity protein binding filter, and washed several times to remove any unbound radioactivity. The filter plate was air dried and sealed on the bottom.
Nonspecific binding was subtracted from total binding to yield specific binding.

For data set [2], the target named is ER-β (Rattus norvegicus (Rat), UniProt Q62986). Put plainly: Transient transactivation assay in HEK-293 cells, ER-β and ERE-LUC. The following applies: for Function on ER-β in transactivation: HEK-293 cells. It counts as cell-based. The protocol:
Human estrogen receptors (ER-α and ER-β) were cloned from prostate cDNA into a pCR3.1 plasmid vector backbone. PGC-1 was cloned into mammalian two hybrid vector pACT. ER-β H475 was mutated to alanine using site-directed mutagenesis. Sequencing was performed to determine the absence of any non specific mutations. […] HEK-293 cells were plated at 100,000 cells per well of a 24 well plate in […] (DMEM)+5% charcoal-stripped fetal bovine serum (csFBS). […] Luciferase assays were performed 48 hrs after transfection.
The cells were treated with varying concentrations of the ligands and their EC50 values were determined.

In data set [3] the test system is receptors for progesterone, mineralocorticoids, androgens, glucocorticoids, FXR, PXR, LXR, RXR, PPAR-α, PPAR-γ and ERR-α, ERR-β and ERR-γ. Nature of the data set: Transactivation assays for cross reactivity with 13 other NHR. It counts as cell-based. The following applies: concentrations as high as 10 μM; data not shown.
Data set [4] has as its system PPAR-γ. Put plainly: PPAR-γ transactivation (PPRE-LUC) in HEK-293 cells co-transfected with ER-β. Format: cell-based. The protocol:
FIG. 12 depicts the effect of ER-β ligand on PPAR-γ function through ligand binding domain (LBD). (A). HEK-293 cells were transfected with 0.25 μg PPRE-LUC, 5 ng CMV-renilla LUC and the indicated receptors (PPAR-γ and ER-β for the left panel and PPAR-α and ER-β for the right panel). The cells were treated 24 hrs after transfection with the indicated ligands and harvested 48 hrs after transfection and firefly luciferase activity was measured and normalized to renilla luciferase. (B). H475 in ER-β LBD is important for its function. H475 in ER-β LBD was mutated to alanine (A) using a site directed mutagenesis kit. Transactivation assay was performed as described in panel A in HEK-293 cells with a titration of ER-β ligands in wild type (WT) or ER-β H475A. (C). […] The cells were treated 24 hrs after transfection with the indicated ligands and harvested 48 hrs after transfection and firefly luciferase activity was measured and normalized to renilla luciferase. […] The cells were treated 24 hrs after transfection with the indicated ligands and harvested 48 hrs after transfection and firefly luciferase activity was measured and normalized to renilla luciferase. […] The cells were treated 24 hrs after transfection with the indicated ligands and harvested 48 hrs after transfection and firefly luciferase activity was measured and normalized to renilla luciferase. […]

For data set [5], the system named is rat aorta rings. Put plainly: Rat aortic ring relaxation. Particulars: 10^-6 PE constriction; for EC50: Rattus norvegicus. The source says: Experimental protocol. Equipment used in these studies included a 4-tissue bath system with reservoirs and circulators (RadnotiGlass Technology, Monrovia, Calif.), DSI/Ponemah tissue force analyzer 7700 (Valley View, Ohio), and iWorx/CB Sciencesforce transducers FT-302. The 250 g rats were anesthetized with isoflurane to produce deep anesthesia. The chest of the rat was opened, and about 3 cm length of aorta was removed and placed in a Petri dish containing room temperature Krebs salt solution (KSS, in mM: 120 NaCl, 5 KCl, 1.2 MgSO4.7H20, 2.5 CaCl2.2H2O, 1 KH2PO4, 25 NaHCO3, and 11 glucose). Fat and connective tissue were removed from the aorta taking care not to stretch the vessel. The aorta was then divided into 3-mm-wide rings. Triangular wire holders were inserted through the lumen of the vessel and connected to the force transducer and tissue holder rod in the vessel bath.
Analog-to-digital conversions of force waveforms were accomplished with a DSI/Ponemah tissue force analyzer 7700. The converted data were automatically analyzed with Ponemah Physiology-Smooth Muscle software. All data are summarized as means±standard error. Differences between means were assessed by a conventional ANOVA. This was followed by Student's test. P<0.05 was considered to be statistically significant.
The tension on the rings was adjusted to 1.0 g passive force using the tension adjustment dial for each transducer and allowed to equilibrate for 60 min in the bath with a 95% O2-5% CO2 gas mixture. The rings were washed with fresh buffer every 20 min. Passive force was readjusted to 1.0 g as needed during this period. When rings were stable at 1.0 g of passive force, the baseline was calculated.
Phenylephrine (PE) at a final concentration of […] was added to the bath to contract the ring, and force was allowed to stabilize for 10 min. Then acetylcholine (ACH) at a final concentration of 10^−5 M was added to the precontracted rings to test for endothelial integrity […]. After the initial test for vessel viability and endothelial integrity, the rings were washed three times for 10 min with buffer, allowing it to equilibrate to active force stabilized at 1 g.
Cumulative concentration-response curves to NRBAs were created by increasing the NRBAs concentration in the tissue bath by successive addition of appropriate dilutions of stock solutions to achieve final bath concentrations of 300 nM to 0.15 mM NRBAs.
Table 10 summarizes EC50 values and maximal % decrease of the 10^−6 PE constriction of the aortic ring for individual NRBAs tested

Data set [6] has as its system Rat Aortic Smooth Muscle Cells (RASMC). Put plainly: RASMC cell proliferation assay (WST-1). It counts as cell-based. Particulars: for EC50: Rattus norvegicus, inhibitory effect sigmoid Emax model, read-out: EC50 for inhibition of RASMC proliferation; for Proliferation of RASMC: concentration between 10-30 μM. How it is done:
EC50 values were calculated using WinNonLin 5.0.1 using the inhibitory effect sigmoid Emax model.

Data set [7] deals with ER-α ligand binding domain (LBD) (Homo sapiens (Human), UniProt P03372). Put plainly: Ligand binding assay of 14m and 12u, ER-α (Example 22A).

Molecules are shown by their SMILES. Where only a bound is given, the exact number is not on record here.

ER-α ligand binding domain (LBD), sequence (P03372 whole entry, looked up, species assumed, the tested form may be a part): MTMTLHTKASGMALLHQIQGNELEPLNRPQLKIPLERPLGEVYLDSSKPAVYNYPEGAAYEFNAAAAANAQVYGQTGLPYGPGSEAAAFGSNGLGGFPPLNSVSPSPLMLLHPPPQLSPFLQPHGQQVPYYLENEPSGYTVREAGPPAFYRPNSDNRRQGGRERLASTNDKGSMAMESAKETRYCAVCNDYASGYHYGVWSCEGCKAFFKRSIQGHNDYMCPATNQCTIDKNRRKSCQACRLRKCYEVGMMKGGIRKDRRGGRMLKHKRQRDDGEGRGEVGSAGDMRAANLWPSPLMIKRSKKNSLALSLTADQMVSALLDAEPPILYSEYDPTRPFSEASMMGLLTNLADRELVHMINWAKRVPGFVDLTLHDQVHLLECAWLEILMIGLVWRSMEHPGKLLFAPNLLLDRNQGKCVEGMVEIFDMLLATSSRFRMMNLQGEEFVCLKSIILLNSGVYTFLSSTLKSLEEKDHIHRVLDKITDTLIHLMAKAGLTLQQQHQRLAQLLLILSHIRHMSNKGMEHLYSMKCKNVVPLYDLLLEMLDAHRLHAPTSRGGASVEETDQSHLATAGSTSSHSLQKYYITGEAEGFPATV
ERα ligand binding domain, sequence (P03372 whole entry, looked up, the tested form may be a part): as the sequence (P03372 whole entry, looked up, species assumed, the tested form may be a part) above

As to `O=c1c2c(O)cc(O)cc2c(Br)cn1-c1ccc(O)cc1` [12u, 4-bromo-6,8-dihydroxy-2-(4-hydroxyphenyl)isoquinolin-1(2H)-one], the inhibition at 0.1 µM in data set [1] (100 nM of compound, read-out: Percent Inhibition of [3H]-Estradiol Binding to ER-α) was 61.3%. In addition, in data set [2], the EC50 was less than 0.01 µM and the “Function on ER-β in transactivation” value is “agonists”. For the same molecule, in data set [3], the “Cross reactivity with 13 other NHR” value was “did not cross react”. In addition, the “Troglitazone-induced PPAR-γ activity” value in data set [4] was “partially inhibited”. Besides, in data set [5], the “Mean of Maximal % Decrease of the PE constriction of the aortic ring” value stood at 50.97% and the EC50 was found to be 30 µM. Further, in data set [6], the EC50 turned out to be 9.56 µM and the “Proliferation of RASMC” value is “inhibited the proliferation of RASMC in a dose-dependent manner”. Besides, the Ki in data set [7] was 0.04 µM.

In the case of `N#Cc1cn(-c2ccc(O)cc2)c(=O)c2c(O)cc(O)cc12` [14m, 6,8-dihydroxy-2-(4-hydroxyphenyl)-1-oxo-1,2-dihydroisoquinoline-4-carbonitrile], the Ki in data set [1] (read-out: ER-α binding constant (Ki)) was found to be 0.094 µM. Besides, in data set [2], the EC50 was less than 0.01 µM and the “Function on ER-β in transactivation” value is listed as “agonists”. For the same molecule, the “Cross reactivity with 13 other NHR” value in data set [3] is recorded as “did not cross react”. The “Troglitazone-induced PPAR-γ activity” value in data set [4] was “partially inhibited”. In data set [5], the “Mean of Maximal % Decrease of the PE constriction of the aortic ring” value is recorded as 94.49% and the EC50 came to 7.64 µM. In addition, in data set [6], the EC50 was 7.89 µM and the “Proliferation of RASMC” value is “inhibited the proliferation of RASMC in a dose-dependent manner”. Moreover, the affinity in data set [7] corresponds to a Ki of 0.094 µM.
